The values that follow come from patent US10562902B2, “IRAK4 inhibitor and use thereof” (BEIJING HANMI PHARMACEUTICAL CO., LTD., priority 2015, dated 2020).

One experiment concerns the target IRAK4 kinase (Homo sapiens (Human), UniProt Q9NWZ3). Kind of experiment: IRAK4 kinase activity inhibition assay. Format: biochemical. The note with it: ADP-Glo kinase assay, 10 μM ATP, MBP substrate. How it is done:
IRAK4 kinase (purchased from Life Technologies, Cat. No.: PR5612U) was diluted to 2 folds of the final concentration (the final concentration is […]) with reaction buffer (40 mM Tris-HC1, pH 7.5; 20 mM MgCl2; 0.1 mg/mL BSA; 1 mM DTT), and added to a 384-well plate at 5 μL/well. The test drugs were 10-fold serial diluted from 10 μM to set six concentration points and added to the test wells of the 384-well plate at 2.5 μL/well. After incubation for 10 min at 25° C., 10 μM of ATP and 0.1 μg/μL of an enzyme reaction substrate, myelin basic protein MBP (purchased from Signal Chem, Cat. No.: M42-51N) were added at 2.5 μL/well, and reacted at 25° C. for 60 minutes. After the reaction was completed, the kinase activity assay was performed using the ADP-Glo™ kinase assay kit (purchased from Promega, Cat. No.: V9102) according to the manufacture's instruction, i.e., 10 μL of ADP-Glo reaction reagent was first added and reacted at 25° C. for 40 minutes, 10 μL of the reaction mixture was taken and mixed with 10 μL of ADP-Glo detection reagent, and reacted at 25° C. for 30 minutes. The kinase activity was then detected, and the IC50 values of the test drugs were calculated.
Background: ADP-Glo turns the ADP formed in a reaction into a luminescent signal.

For the next experiment, the system named is TMD-8 cells. Nature of the experiment: TMD-8 cell growth inhibition assay. The conditions noted are these: Homo sapiens, TMD8, 96 hours, CCK-8. It counts as cell-based. Here is the method:
The compound of Example 64 and the compound of Example 74 of the invention were tested in TMD-8 cell growth inhibition assay. TMD-8 cells (available from Korea Hanmi Research Center) were cultured in RMPI-1640 medium (purchased from Gibco, Cat. No.: 22440) containing 10% fetal bovine serum (purchased from Gibco, Cat. No.: 10099-141). The TMD-8 cells in logarithmic growth phase were seeded in a 96-well plate at 20,000 cells/well/100 μL, and RMPI-1640 medium (100 μL) was added into blank control wells. The test samples were diluted with RMPI-1640 medium to 2 folds of the final concentration (10-fold dilutions starting from 10 μM, setting 6 drug concentrations, and testing in replicate wells at each concentration). The diluted test samples were added to test wells seeded with cells at 100 μL/well, and RMPI-1640 medium (100 μL) was separately added to the positive control and the blank control wells. The 96-well plate was placed in the incubator and reacted at 37° C., 5% CO2 for 96 hours. After the reaction was completed, the 96-well plate was taken from the incubator and to each well was added CCK-8 (100 μL) (purchased from DOJINDO, Cat. No.: CK04-11). Then the 96-well plate was put back to the incubator and incubated for another 2 hours.

Sequence of IRAK4 kinase (Q9NWZ3 whole entry): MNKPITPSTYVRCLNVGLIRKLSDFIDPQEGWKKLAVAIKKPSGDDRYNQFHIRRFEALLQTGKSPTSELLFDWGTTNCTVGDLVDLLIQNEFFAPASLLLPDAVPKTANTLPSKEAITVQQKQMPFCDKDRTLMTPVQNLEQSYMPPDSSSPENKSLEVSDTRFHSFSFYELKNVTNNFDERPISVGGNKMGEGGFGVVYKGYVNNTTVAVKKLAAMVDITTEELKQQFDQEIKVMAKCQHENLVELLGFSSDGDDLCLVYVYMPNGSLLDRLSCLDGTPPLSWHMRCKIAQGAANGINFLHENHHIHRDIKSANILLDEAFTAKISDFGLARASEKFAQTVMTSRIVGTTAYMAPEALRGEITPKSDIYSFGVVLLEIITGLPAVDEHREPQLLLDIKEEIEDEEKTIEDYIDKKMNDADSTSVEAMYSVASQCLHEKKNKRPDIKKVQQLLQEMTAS

Broadly, the IC50 is the point on the concentration scale where inhibition reaches its midpoint. A higher IC50 goes with lower potency. Turning to `Cc1cc(Nc2nc(O[C@H]3CCOC3)c3c(ccn3-c3cnn(C)c3)n2)sn1` [Example 64], the IC50 against IRAK4 kinase is no more than 100 nM; in the experiment with TMD-8 cells, 184 nM. The matching figures for `Cc1cc(Nc2nc(OC3CCOCC3)c3c(ccn3-c3cnn(C)c3)n2)sn1` [Example 74]: no more than 100 nM and 479 nM. On IRAK4 kinase, `Cn1cc(-n2ccc3nc(Nc4ccc5c(c4)CNC5=O)nc(O[C@H]4CCOC4)c32)cn1` [Example 120] had an IC50 of no more than 100 nM. `CN1Cc2cc(Nc3nc(O[C@H]4CCOC4)c4c(ccn4-c4cnn(C)c4)n3)ccc2C1=O` [Example 121]: the IC50 at IRAK4 kinase was no more than 100 nM.

Take `Cn1cc(-n2ccc3nc(Nc4ccc5c(c4)C(=O)NC5)nc(O[C@H]4CCOC4)c32)cn1` [Example 122]: the IC50 at IRAK4 kinase fell in the range of 100 to 1000 nM. The same measure, in the same setting: then `Cn1cc(-n2ccc3nc(Nc4ccc5[nH]ncc5c4)nc(O[C@H]4CCOC4)c32)cn1` [Example 123], with no more than 100 nM; and `Cn1cc(-n2ccc3nc(Nc4ccc5cn[nH]c5c4)nc(O[C@H]4CCOC4)c32)cn1` [Example 124], with 100 to 1000 nM; and `Cn1cc(-n2ccc3nc(Nc4ccc5ncsc5c4)nc(O[C@H]4CCOC4)c32)cn1` [Example 125], with 100 to 1000 nM. On IRAK4 kinase, `CNC(=O)c1csc(Nc2nc(O[C@H]3CCOC3)c3c(ccn3-c3ccoc3)n2)c1` [Example 126] displayed an IC50 of no more than 100 nM.

Regarding `CCNC(=O)c1csc(Nc2nc(OC(C)C)c3c(ccn3-c3cnn(C)c3)n2)c1` [Example 127], on IRAK4 kinase, the IC50 was no more than 100 nM. With `CCNC(=O)c1csc(Nc2nc(OC3CCCC3)c3c(ccn3-c3cnn(C)c3)n2)c1` [Example 128], the IC50 against IRAK4 kinase was 100 to 1000 nM. Regarding `CCNC(=O)c1csc(Nc2nc(OC3CCCCC3)c3c(ccn3-c3cnn(C)c3)n2)c1` [Example 129], the IC50 against IRAK4 kinase is 100 to 1000 nM.

As to `CCNC(=O)c1csc(Nc2nc(OCCOC)c3c(ccn3-c3cnn(C)c3)n2)c1` [Example 130], the 50% inhibitory concentration (IC50) on IRAK4 kinase was no more than 100 nM. The same measure, in the same setting: then `CCNC(=O)c1csc(Nc2nc(O[C@@H]3CCOC3)c3c(ccn3-c3cnn(C)c3)n2)c1` [Example 131], with no more than 100 nM.

On IRAK4 kinase, `Cn1cc(-n2ccc3nc(Nc4cc(C(N)=O)cs4)nc(O[C@H]4CCOC4)c32)cn1` [Example 132] displayed an IC50 of no more than 100 nM.

The compound `CCCNC(=O)c1csc(Nc2nc(O[C@H]3CCOC3)c3c(ccn3-c3cnn(C)c3)n2)c1` [Example 135] registered an IC50 at IRAK4 kinase of 100 to 1000 nM. On the same count and under the same terms, then `CC(C)NC(=O)c1csc(Nc2nc(O[C@H]3CCOC3)c3c(ccn3-c3cnn(C)c3)n2)c1` [Example 136], with no more than 100 nM. On the same count and under the same terms, then `Cn1cc(-n2ccc3nc(Nc4cc(C(=O)NCCF)cs4)nc(O[C@H]4CCOC4)c32)cn1` [Example 137], with no more than 100 nM. On the same count and under the same terms, then `Cn1cc(-n2ccc3nc(Nc4cc(C(=O)NCC(F)(F)F)cs4)nc(O[C@H]4CCOC4)c32)cn1` [Example 138], with no more than 100 nM; and `COCCNC(=O)c1csc(Nc2nc(O[C@H]3CCOC3)c3c(ccn3-c3cnn(C)c3)n2)c1` [Example 139], with no more than 100 nM; and `Cn1cc(-n2ccc3nc(Nc4cc(C(=O)NCC5CCOCC5)cs4)nc(O[C@H]4CCOC4)c32)cn1` [Example 140], with no more than 100 nM. `CN1CCC(CNC(=O)c2csc(Nc3nc(O[C@H]4CCOC4)c4c(ccn4-c4cnn(C)c4)n3)c2)CC1` [Example 141] registered an IC50 against IRAK4 kinase of no more than 100 nM. The same measure, in the same setting: then `Cn1cc(-n2ccc3nc(Nc4cc(C(=O)NCc5cccs5)cs4)nc(O[C@H]4CCOC4)c32)cn1` [Example 142], with 100 to 1000 nM; and `Cn1cc(-n2ccc3nc(Nc4cc(C(=O)NC5CC5)cs4)nc(O[C@H]4CCOC4)c32)cn1` [Example 143], with no more than 100 nM.

In the case of `Cn1cc(-n2ccc3nc(Nc4cc(C(=O)NC5CCCCC5)cs4)nc(O[C@H]4CCOC4)c32)cn1` [Example 144], the IC50 at IRAK4 kinase was in the range of 100 to 1000 nM. Still for that read-out and setting: then `CN1CCC(NC(=O)c2csc(Nc3nc(O[C@H]4CCOC4)c4c(ccn4-c4cnn(C)c4)n3)c2)CC1` [Example 145], with no more than 100 nM. Still for that read-out and setting: for `Cn1cc(-n2ccc3nc(Nc4cc(C(=O)N[C@@H]5CCOC5)cs4)nc(O[C@H]4CCOC4)c32)cn1` [Example 146] the value was no more than 100 nM.

As for `Cn1cc(-n2ccc3nc(Nc4cc(C(=O)N[C@H]5CCOC5)cs4)nc(O[C@H]4CCOC4)c32)cn1` [Example 147], the IC50 against IRAK4 kinase is no more than 100 nM. The compound `Cn1cc(-n2ccc3nc(Nc4cc(C(=O)NC5CCOCC5)cs4)nc(O[C@H]4CCOC4)c32)cn1` [Example 148] returned an IC50 at IRAK4 kinase of no more than 100 nM. With `CN(C)C(=O)c1csc(Nc2nc(O[C@H]3CCOC3)c3c(ccn3-c3cnn(C)c3)n2)c1` [Example 149], at IRAK4 kinase, the IC50 was no more than 100 nM. The same measure, in the same setting: then `Cn1cc(-n2ccc3nc(Nc4cc(C(=O)N5CCCCC5)cs4)nc(O[C@H]4CCOC4)c32)cn1` [Example 150], with no more than 100 nM; and `CN1CCN(C(=O)c2csc(Nc3nc(O[C@H]4CCOC4)c4c(ccn4-c4cnn(C)c4)n3)c2)CC1` [Example 151], with no more than 100 nM.

On to `Cn1cc(-n2ccc3nc(Nc4cc(C(=O)N5CCOCC5)cs4)nc(O[C@H]4CCOC4)c32)cn1` [Example 152], for which the IC50 against IRAK4 kinase is no more than 100 nM. In turn, `Cn1cc(-n2ccc3nc(Nc4cc(C(=O)N5CCSCC5)cs4)nc(O[C@H]4CCOC4)c32)cn1` [Example 153] yielded an IC50 on IRAK4 kinase of 100 to 1000 nM. For `Cn1cc(-n2ccc3nc(Nc4cc(C(=O)N5CCS(=O)(=O)CC5)cs4)nc(O[C@H]4CCOC4)c32)cn1` [Example 154], the IC50 on IRAK4 kinase was no more than 100 nM. `CNC(=O)c1cc(Nc2nc(OCCOC)c3c(ccn3-c3cnn(C)c3)n2)cs1` [Example 155]: the IC50 against IRAK4 kinase was no more than 100 nM. Same read-out and setting: then `CCNC(=O)c1cc(Nc2nc(OCCOC)c3c(ccn3-c3cnn(C)c3)n2)cs1` [Example 156], with no more than 100 nM; and `CNC(=O)c1cc(Nc2nc(O[C@@H]3CCOC3)c3c(ccn3-c3cnn(C)c3)n2)cs1` [Example 157], with no more than 100 nM. On the same count and under the same terms, then `CCNC(=O)c1cc(Nc2nc(O[C@@H]3CCOC3)c3c(ccn3-c3cnn(C)c3)n2)cs1` [Example 158], with no more than 100 nM; and `CNC(=O)c1cc(Nc2nc(O[C@H]3CCOC3)c3c(ccn3-c3cnn(C)c3)n2)cs1` [Example 159], with no more than 100 nM; and `CCNC(=O)c1cc(Nc2nc(O[C@H]3CCOC3)c3c(ccn3-c3cnn(C)c3)n2)cs1` [Example 160], with no more than 100 nM. Still for that read-out and setting: then `Cn1cc(-n2ccc3nc(Nc4csc(C(=O)NCCF)c4)nc(O[C@H]4CCOC4)c32)cn1` [Example 161], with no more than 100 nM; and `CN1CCC(NC(=O)c2cc(Nc3nc(O[C@H]4CCOC4)c4c(ccn4-c4cnn(C)c4)n3)cs2)CC1` [Example 162], with no more than 100 nM; and `CN(C)C(=O)c1cc(Nc2nc(O[C@H]3CCOC3)c3c(ccn3-c3cnn(C)c3)n2)cs1` [Example 163], with no more than 100 nM.

`CNC(=O)c1ccc(Nc2nc(O[C@H]3CCOC3)c3c(ccn3-c3cnn(C)c3)n2)s1` [Example 164]: on IRAK4 kinase, the IC50 was in the range of 100 to 1000 nM. Same read-out and setting: for `CNC(=O)c1csc(Nc2nc(O[C@H]3CCOC3)c3c(ccn3-c3cnn(C)c3)n2)n1` [Example 165] the value was 1000 to 10000 nM. Same read-out and setting: for `CNC(=O)c1cc(Nc2nc(O[C@H]3CCOC3)c3c(ccn3-c3cnn(C)c3)n2)sn1` [Example 166] the value was no more than 100 nM; for `CNC(=O)c1csc(Nc2nc(OC3CCOCC3)c3c(ccn3-c3cnn(C)c3)n2)c1` [Example 167], no more than 100 nM; for `CCNC(=O)c1csc(Nc2nc(OC3CCOCC3)c3c(ccn3-c3cnn(C)c3)n2)c1` [Example 168], no more than 100 nM. Same read-out and setting: then `Cn1cc(-n2ccc3nc(Nc4cc(C(=O)NCCF)cs4)nc(OC4CCOCC4)c32)cn1` [Example 169], with no more than 100 nM; and `Cn1cc(-n2ccc3nc(Nc4cc(C(=O)NCC(F)F)cs4)nc(OC4CCOCC4)c32)cn1` [Example 170], with no more than 100 nM; and `CN(C)C(=O)c1csc(Nc2nc(OC3CCOCC3)c3c(ccn3-c3cnn(C)c3)n2)c1` [Example 171], with no more than 100 nM. As to `CNC(=O)c1cc(Nc2nc(OC3CCOCC3)c3c(ccn3-c3cnn(C)c3)n2)cs1` [Example 172], at IRAK4 kinase, the IC50 was no more than 100 nM.

`CCNC(=O)c1cc(Nc2nc(OC3CCOCC3)c3c(ccn3-c3cnn(C)c3)n2)cs1` [Example 173] displayed an IC50 on IRAK4 kinase of no more than 100 nM. `CN(C)C(=O)c1cc(Nc2nc(OC3CCOCC3)c3c(ccn3-c3cnn(C)c3)n2)cs1` [Example 174]: on IRAK4 kinase, the IC50 lay in the range of 100 to 1000 nM. Still for that read-out and setting: then `Cn1cc(-n2ccc3nc(Nc4cc5n(c4)CCNC5=O)nc(OC4CCOCC4)c32)cn1` [Example 175], with 100 to 1000 nM.
